Laboratory results published in ChEMBL document CHEMBL5465560, “Selectivity Literature for EUbOPEN Chemogenomic Library” (2024).
Each block holds one molecule with its values, some of them ahead of it.

Key:
[1] = molecular target: T1, Serine/threonine-protein kinase greatwall (Homo sapiens) (UniProt Q96GX5); assay: Selectivity interaction (ActivX KiNativ screen (kinase selectivity in THP-1 cell lysates)) EUB0000639a MASTL; assay type: subcellular; settings: lysate, at 0.01 µM
T1 sequence (whole entry): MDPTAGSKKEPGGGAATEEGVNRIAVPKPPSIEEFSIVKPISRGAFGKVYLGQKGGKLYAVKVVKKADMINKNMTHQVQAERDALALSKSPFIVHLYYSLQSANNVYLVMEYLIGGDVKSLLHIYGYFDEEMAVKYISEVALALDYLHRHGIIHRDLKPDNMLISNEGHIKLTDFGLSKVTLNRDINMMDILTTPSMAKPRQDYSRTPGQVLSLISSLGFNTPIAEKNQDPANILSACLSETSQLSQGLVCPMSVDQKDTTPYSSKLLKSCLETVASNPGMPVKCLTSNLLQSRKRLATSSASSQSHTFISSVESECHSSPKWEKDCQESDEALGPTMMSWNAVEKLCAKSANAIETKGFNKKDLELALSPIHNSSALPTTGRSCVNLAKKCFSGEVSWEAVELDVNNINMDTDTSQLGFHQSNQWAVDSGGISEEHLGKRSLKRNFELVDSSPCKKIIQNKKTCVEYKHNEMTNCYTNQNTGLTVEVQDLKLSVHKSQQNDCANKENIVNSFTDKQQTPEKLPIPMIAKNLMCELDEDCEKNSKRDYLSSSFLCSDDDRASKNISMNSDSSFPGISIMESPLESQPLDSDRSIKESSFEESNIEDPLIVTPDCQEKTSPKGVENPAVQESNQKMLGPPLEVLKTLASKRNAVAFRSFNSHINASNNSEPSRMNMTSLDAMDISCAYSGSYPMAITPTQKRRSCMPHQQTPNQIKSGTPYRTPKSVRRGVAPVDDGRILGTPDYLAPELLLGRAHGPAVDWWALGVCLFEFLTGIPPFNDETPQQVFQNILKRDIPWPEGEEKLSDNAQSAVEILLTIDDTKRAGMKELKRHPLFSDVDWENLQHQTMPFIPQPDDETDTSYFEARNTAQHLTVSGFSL

[2] = molecular target: T2, Serine/threonine-protein kinase BRSK1 (Homo sapiens) (UniProt Q8TDC3); assay: Selectivity interaction (KinomeScan (DiscoverX)) EUB0000092b BRSK1; settings: at 10 µM
T2 sequence (whole entry): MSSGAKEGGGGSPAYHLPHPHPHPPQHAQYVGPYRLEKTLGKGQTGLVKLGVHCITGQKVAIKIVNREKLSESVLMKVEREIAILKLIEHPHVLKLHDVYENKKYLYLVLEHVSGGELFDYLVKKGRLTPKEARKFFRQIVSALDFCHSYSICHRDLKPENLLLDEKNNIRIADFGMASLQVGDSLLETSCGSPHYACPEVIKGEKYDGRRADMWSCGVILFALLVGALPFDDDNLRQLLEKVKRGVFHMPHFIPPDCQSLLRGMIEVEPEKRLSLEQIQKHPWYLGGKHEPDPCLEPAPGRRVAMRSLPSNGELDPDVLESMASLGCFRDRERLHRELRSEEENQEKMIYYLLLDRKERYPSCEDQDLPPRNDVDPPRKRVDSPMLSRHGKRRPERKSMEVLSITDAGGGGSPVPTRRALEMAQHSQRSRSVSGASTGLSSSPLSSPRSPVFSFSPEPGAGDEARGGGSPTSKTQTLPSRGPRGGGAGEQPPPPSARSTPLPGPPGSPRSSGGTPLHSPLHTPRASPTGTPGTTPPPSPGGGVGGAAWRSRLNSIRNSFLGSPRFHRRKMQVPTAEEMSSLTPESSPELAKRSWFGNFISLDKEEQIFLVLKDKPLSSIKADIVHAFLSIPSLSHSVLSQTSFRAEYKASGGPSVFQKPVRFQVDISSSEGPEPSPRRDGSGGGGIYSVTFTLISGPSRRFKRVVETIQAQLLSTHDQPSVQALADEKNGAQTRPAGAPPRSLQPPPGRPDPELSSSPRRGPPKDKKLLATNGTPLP

[3] = molecular target: Calcium/calmodulin-dependent protein kinase type 1D (Homo sapiens) (UniProt Q8IU85); assay: Selectivity interaction (ActivX KiNativ screen (ex vivo kinase selectivity in human PBMCs)) EUB0001619a CAMK1D; assay type: cell-based; settings: PBMC, at 1 µM
[4] = molecular target: T3, Cytoplasmic tyrosine-protein kinase BMX (Homo sapiens) (UniProt P51813); assay: Selectivity interaction (SelectScreen profiling (Invitrogen)) EUB0000607a BMX; settings: at 2 µM
T3 sequence (whole entry): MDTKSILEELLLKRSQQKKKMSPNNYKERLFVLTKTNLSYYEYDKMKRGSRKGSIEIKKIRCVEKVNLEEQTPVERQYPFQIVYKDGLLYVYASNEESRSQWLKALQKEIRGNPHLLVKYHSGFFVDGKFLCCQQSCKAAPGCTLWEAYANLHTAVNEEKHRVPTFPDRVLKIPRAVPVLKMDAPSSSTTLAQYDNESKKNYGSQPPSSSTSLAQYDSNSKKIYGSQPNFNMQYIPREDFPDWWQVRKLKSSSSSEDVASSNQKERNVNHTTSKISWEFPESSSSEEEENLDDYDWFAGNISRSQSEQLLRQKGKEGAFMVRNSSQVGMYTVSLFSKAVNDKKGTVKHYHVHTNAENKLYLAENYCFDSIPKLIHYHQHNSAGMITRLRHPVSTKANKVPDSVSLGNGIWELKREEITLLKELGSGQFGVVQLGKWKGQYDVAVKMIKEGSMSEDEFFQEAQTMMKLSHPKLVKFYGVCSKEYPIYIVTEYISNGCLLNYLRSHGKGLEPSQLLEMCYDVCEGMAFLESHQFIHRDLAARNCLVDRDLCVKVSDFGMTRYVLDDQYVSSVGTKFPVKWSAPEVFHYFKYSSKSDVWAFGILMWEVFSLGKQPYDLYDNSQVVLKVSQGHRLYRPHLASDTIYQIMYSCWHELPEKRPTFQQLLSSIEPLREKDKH

Chain of Calcium/calmodulin-dependent protein kinase type 1D (Homo sapiens) (Q8IU85 whole entry, looked up): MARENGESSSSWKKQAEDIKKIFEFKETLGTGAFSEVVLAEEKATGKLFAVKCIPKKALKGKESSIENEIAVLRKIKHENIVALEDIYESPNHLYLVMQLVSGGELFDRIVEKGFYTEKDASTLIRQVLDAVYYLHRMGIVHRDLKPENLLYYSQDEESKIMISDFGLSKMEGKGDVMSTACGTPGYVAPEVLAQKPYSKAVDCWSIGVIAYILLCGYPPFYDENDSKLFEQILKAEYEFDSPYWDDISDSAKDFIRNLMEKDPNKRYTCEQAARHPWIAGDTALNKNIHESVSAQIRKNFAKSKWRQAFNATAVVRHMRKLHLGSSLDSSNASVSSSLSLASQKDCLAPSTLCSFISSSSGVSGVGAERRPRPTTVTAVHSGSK

% of inhibition [1]: 16.1%
SMILES: CC[C@@H]1[C@H](F)C(=O)N[C@@H]1COc1nccc2cc(C(N)=O)c(OC)cc12 [ZIMLOVISERTIB]

SMILES: CCC(=O)N1CCN(c2ccc(-n3c(=O)ccc4cnc5ccc(-c6cnc7ccccc7c6)cc5c43)cc2C(F)(F)F)CC1
% of control [2]: 78%

SMILES: N#Cc1cccc(-c2c[nH]c3ncnc(N4CCOCC4)c23)c1
% of inhibition [3]: 1%

SMILES: CNC(=O)Nc1ccc(-c2nc(N3CC4CCC(C3)O4)c3cnn(C4CCC5(CC4)OCCO5)c3n2)cc1
% of inhibition [4]: 10%
